Results on 18 compounds are retold here after PubChem BioAssay (NCI).

Structures are written as SMILES.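 48-hour exposure; five concentrations; linearly interpolated endpoints. GI50: concentration for 50% inhibition of growth. The concentration for full growth arrest is given as TGI.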

What all share (test): inhibition of tumour cell growth, NCI panel, 48 h
Experiment [1] relates to 786-0 renal.
The test system of experiment [2] is COLO 205 colon.
Experiment [3] concerns SF-295 CNS.
For experiment [4], the system named is SR leukemia.
Experiment [5] deals with RPMI-8226 leukemia.
Experiment [6] has as its system CAKI-1 renal.
Experiment [7] deals with EKVX NSCLC.
The subject of experiment [8] is U251 CNS.
Experiment [9] relates to LOX IMVI melanoma.
Experiment [10] relates to SF-268 CNS.

On to `Nc1nc(SCc2ccccc2CCl)c2[nH]cnc2n1`, for which the GI50 in experiment [1] is 17.6 µM; in experiment [2] it was 16.2 µM; in experiment [3], 18.7 µM; in experiment [4], 24.8 µM; in experiment [5], 31.9 µM; in experiment [6], 15.6 µM. Moreover, the GI50 was 12.9 µM in [7], 13.1 µM in experiment [8], 12.7 µM in [9] and 12.6 µM in experiment [10]. The TGI in experiment [1] was 40.3 µM; in experiment [2] it was 36.1 µM; in experiment [3], 56 µM; in experiment [4], over 100 µM; in experiment [5] it was over 100 µM; in experiment [6] it was 44 µM. Besides, the TGI stood at 25.9 µM in [7], 27.3 µM in [8], 26.9 µM in experiment [9] and 25.6 µM in experiment [10].

On to `Nc1ccc(CC[C@H]2CCC/C=C/[C@@H]3C[C@H](O)C[C@H]3[C@H](O)/C=C/C(=O)O2)cc1`, for which the GI50 in experiment [1] is 0.0239 µM; in experiment [2], 0.0188 µM; in experiment [3] it was 0.0476 µM; in [4] it was 0.0348 µM; in [5], 0.0322 µM; in experiment [6], 0.0349 µM. Moreover, the GI50 in experiment [7] was 0.0374 µM; in [8], 0.048 µM; in [9], 0.0231 µM; in experiment [10] it was 0.0351 µM. For the same compound, the TGI in experiment [1] was 0.057 µM; in [2] it was 0.034 µM; in [3] it was over 100 µM; in experiment [4], 7.51 µM; in experiment [5] it was 0.121 µM; in [6], 1.47 µM. The TGI is 2.49 µM in experiment [7], over 100 µM in experiment [8], 0.0567 µM in experiment [9] and over 100 µM in [10].

With `COC(=O)CC1(O)C(=O)OCc2c1cc1n(c2=O)Cc2c-1nc1ccccc1c2OC` (centres undefined), the TGI is 0.813 µM in [1]; over 100 µM in [2]; 17.5 µM in experiment [3]; under 0.0136 µM in [4]; 23.2 µM in [5]; 4.62 µM in [6]. The TGI in experiment [7] is over 100 µM; in [8] it was 2.11 µM; in experiment [9], over 81.6 µM; in [10], over 34 µM.

Turning to `Cc1cc(N2CCC(N3CCCC3)CC2)nc(/N=C(\N)Nc2ccc(Cl)c(Cl)c2)n1`, the GI50 in experiment [1] was 1.82 µM; in experiment [2], 1.7 µM; in [3] it was 1.84 µM; in experiment [4], 0.255 µM; in experiment [5], 0.264 µM; in experiment [6], 1.29 µM. In addition, the GI50 in experiment [7] is 1.71 µM; in [8] it was 1.79 µM; in [9], 1.61 µM; in experiment [10], 2.34 µM. Moreover, the TGI in [1] is 3.41 µM; in experiment [2], 3.26 µM; in experiment [3] it was 3.55 µM; in experiment [4], over 100 µM; in experiment [5], 0.926 µM; in [6] it was 2.68 µM. The TGI in experiment [7] worked out at 4.4 µM; in experiment [8], 3.35 µM; in [9], 3.35 µM; in [10], 6.66 µM.

On to `CC[C@H](C)[C@H](NC(=O)C12C3C4C1C1C2C3C41NC)C(=O)N(C)[C@H](C[C@@H](OC(C)=O)c1nc(C(=O)N[C@@H](Cc2ccccc2)C[C@H](C)C(=O)OC)cs1)C(C)C` (some centres undefined), for which the GI50 is 0.76 µM in experiment [1]; 0.402 µM in experiment [2]; 0.526 µM in experiment [3]; 0.0469 µM in experiment [4]; 0.143 µM in experiment [5]; 5.57 µM in [6]. Further, the GI50 in experiment [7] was 1.67 µM; in experiment [8], 0.594 µM; in experiment [9], 0.493 µM; in experiment [10] it was 1.3 µM. Moreover, the TGI was over 14.3 µM in experiment [1]; 2.51 µM in experiment [2]; over 9.29 µM in experiment [3]; over 14.3 µM in [4]; over 6.29 µM in experiment [5]; over 14.3 µM in [6]. Moreover, the TGI in experiment [7], in experiment [8], in experiment [9] and in experiment [10] was over 14.3 µM in each case.

For the compound `CC1(C)CC(O)CC(C)(C)N1O`, the TGI in experiment [1], in experiment [2], in experiment [3], in experiment [4], in experiment [5] and in experiment [6] was over 100 µM each time. Moreover, the TGI in [7], in experiment [8], in experiment [9] and in [10] was over 100 µM throughout. Also, the GI50 in experiment [8] and in experiment [9] was over 100 µM throughout.

On to `Cn1cc(-c2cc(-c3cn(C)c4ccccc34)[nH]n2)c2ccccc21`, for which the GI50 in experiment [1] is 14.1 µM; in [2] it was 7.98 µM; in [3], 17.1 µM; in experiment [4], 3.46 µM; in [5], 37.8 µM; in experiment [6] it was over 100 µM. In addition, the GI50 in [7] is 27.2 µM; in experiment [8] it was 12.9 µM; in experiment [9], 5.38 µM; in experiment [10], 16 µM. In addition, the TGI was 41.2 µM in experiment [1]; over 100 µM in experiment [2]; over 100 µM in [3]; 14.8 µM in experiment [4]; over 100 µM in experiment [5]; over 100 µM in experiment [6]. The TGI in [7] is over 100 µM; in experiment [8], 46.9 µM; in experiment [9] it was over 100 µM; in [10], over 100 µM.

Regarding `O=c1[nH]c2cc(Cl)ccc2nc1/C(=N\Nc1ccccc1)C(O)c1ccc2c(c1)OCO2` (centres undefined), the TGI in experiment [1], in experiment [2], in [3], in experiment [4], in [5] and in experiment [6] was over 100 µM in each case. Besides, the TGI in [7], in [8], in experiment [9] and in [10] was over 100 µM each time.

Consider `COc1cccc(/C=C2\N=C(c3ccccc3)OC2=O)c1`, for which the TGI in experiment [1] was over 100 µM; in [2] it was over 100 µM; in [3], over 100 µM; in [4], 65.2 µM; in experiment [5], 94.1 µM; in [6], over 100 µM. The TGI in [7] is over 100 µM; in experiment [8] it was over 100 µM; in experiment [9], 66.8 µM; in [10] it was over 100 µM.

Regarding `O=C1/C(=C/c2ccc(Cl)cc2)CCC1CNc1ccc(Cl)cc1` (centres undefined), the TGI in [1] was 6.73 µM; in [2], 15.8 µM; in experiment [3], over 100 µM; in experiment [4], 43.8 µM; in experiment [5] it was 6.68 µM; in [6], 28.9 µM. The TGI in experiment [7] amounted to 38.4 µM; in [8], 29.6 µM; in experiment [9], 15.1 µM; in [10] it was 40.6 µM.

Take `COC(=O)c1c(C(=O)OC)c(-c2ccccc2)n(-c2ccccc2)c(=O)c1-c1ccccc1`: the TGI in [1], in experiment [2], in experiment [3], in experiment [4], in experiment [5] and in experiment [6] was over 100 µM each time. Also, the TGI in [7], in experiment [8], in experiment [9] and in experiment [10] was over 100 µM each time.

In the case of `COc1cc(C(=O)c2cnc(-c3c[nH]c4cccc(C)c34)[nH]2)cc(OC)c1OC`, the GI50 in [1] is 0.00681 µM; in [2] it was 0.00513 µM; in experiment [5], 0.0399 µM; in experiment [7], 0.00804 µM; in [8] it was 0.00639 µM; in experiment [9], 0.0151 µM. Further, the GI50 in experiment [10] is 0.00862 µM. For the same compound, the TGI was over 100 µM in experiment [1]; 0.0412 µM in experiment [2]; 52.9 µM in experiment [3]; over 100 µM in [4]; 19.8 µM in experiment [5]; over 100 µM in experiment [6]. Besides, the TGI in [8] was 49.1 µM; in [9], over 100 µM; in experiment [10] it was over 100 µM.

As to `Cc1nc2c(C)ccc([N+](=O)[O-])c2c(NCCCN(C)C)c1C`, the TGI in experiment [1] was over 100 µM; in experiment [2], 47.6 µM; in experiment [3] it was over 100 µM; in [4] it was over 100 µM; in [5], over 100 µM; in [6], over 100 µM. Also, the TGI in [7], in [8], in experiment [9] and in experiment [10] was over 100 µM each time.

With `CCCN1C(=O)/C(=C/c2ccc(SC(F)(F)F)cc2)SC1=Nc1ccc(OC)cc1`, the GI50 in experiment [1] is 9.56 µM; in experiment [2], over 50 µM; in [3], 9.32 µM; in experiment [4], 37.7 µM; in experiment [5], 11.8 µM; in [6] it was 2.63 µM. Further, the GI50 was 16.7 µM in [7], 6.51 µM in [8], 4.36 µM in experiment [9] and 11.3 µM in experiment [10]. The TGI in [1] is 25.6 µM; in [2], over 50 µM; in experiment [3], 38.1 µM; in experiment [4] it was over 50 µM; in experiment [5], over 50 µM; in [6], 12.5 µM. Moreover, the TGI in experiment [7] is 48.3 µM; in [8] it was 16.9 µM; in [9], over 50 µM; in experiment [10], 43.9 µM.

Consider `C=CCC(N[C@@H](CO)c1ccccc1)c1ccc2ccccc2n1` (some centres undefined), for which the GI50 in [1] is over 100 µM; in experiment [2] it was over 100 µM; in experiment [3] it was over 100 µM; in [4] it was 17.2 µM; in [5], 30.2 µM; in [6] it was over 100 µM. Besides, the GI50 in [7], in experiment [8] and in experiment [9] was over 100 µM each time. The TGI in [1] was over 100 µM; in experiment [2] it was over 100 µM; in [3], over 100 µM; in experiment [4], 65.5 µM; in [5], over 100 µM; in [6], over 100 µM. Besides, the TGI in [7], in [8] and in experiment [9] was over 100 µM each time.

For the compound `[O]=[Sn]([CH]1CCCCC1)[CH]1CCCCC1`, the GI50 in experiment [1] was 0.214 µM; in [2], 0.249 µM; in experiment [3], 0.319 µM; in experiment [4] it was 0.312 µM; in experiment [5], 0.188 µM; in experiment [6] it was 0.145 µM. Further, the GI50 in experiment [7] was 0.225 µM; in experiment [8] it was 0.0514 µM; in experiment [9] it was 0.123 µM; in [10], 0.214 µM. The TGI amounted to 0.456 µM in experiment [1]; 0.731 µM in experiment [2]; 1.35 µM in [3]; 1.71 µM in experiment [4]; 0.718 µM in experiment [5]; 0.341 µM in [6]. Also, the TGI in [7] is 1.2 µM; in experiment [8], 0.2 µM; in [9] it was 0.297 µM; in experiment [10], 0.654 µM.

Consider `CCn1c(-c2nonc2N)nc2ccccc21`, for which the GI50 in experiment [1], in experiment [2], in [3], in experiment [4], in experiment [5] and in experiment [6] was over 25 µM throughout. Moreover, the GI50 in experiment [7] is 20.9 µM; in experiment [8], over 25 µM; in experiment [9], over 25 µM; in experiment [10], over 25 µM. Moreover, the TGI in [1], in experiment [2], in experiment [3], in [4], in experiment [5] and in experiment [6] was over 25 µM throughout. Moreover, the TGI in experiment [7], in [8], in experiment [9] and in experiment [10] was over 25 µM each time.

For `[Br][Pb]([c]1ccccc1)([c]1ccccc1)[c]1ccccc1`, the GI50 was 0.153 µM in [1]; 0.177 µM in experiment [2]; 0.103 µM in experiment [4]; 0.179 µM in experiment [5]; 0.2 µM in experiment [6]; 0.183 µM in [7]. Also, the GI50 in experiment [8] was 0.169 µM; in [9], 0.132 µM; in experiment [10], 0.171 µM. Besides, the TGI in experiment [1] is 0.309 µM; in [2], 0.356 µM; in experiment [4], over 100 µM; in experiment [5], 0.681 µM; in experiment [6] it was 0.454 µM; in experiment [7], 0.439 µM. The TGI in experiment [8] was found to be 0.309 µM; in experiment [9], 0.299 µM; in experiment [10], 0.35 µM.
